# According to patent publication US10807968B2, “Substituted 2-(het)arylimidazolylcarboxyamides as pesticides” (Bayer CropScience Aktiengesellschaft, priority 2016, dated 2020):
# Experiments:
# Meloidogyne incognita = Meloidogyne incognita test; type: in vivo; conditions: 20 ppm, after 14 days, lettuce in sand
# Procedure: Meloidogyne Incognita Test
# Solvent: 125.0 parts by weight of acetone
# To produce a suitable active compound formulation, 1 part by weight of active compound is mixed with the stated amount of solvent and the concentrate is diluted with water to the desired concentration.
# Vessels are filled with sand, active compound solution, an egg/larvae suspension of the southern root-knot nematode (Meloidogyne incognita) and lettuce seeds. The lettuce seeds germinate and the plants develop. The galls develop on the roots.
# After 14 days, the nematicidal efficacy in % is determined by the formation of galls. 100% means that no galls were found; 0% means that the number of galls on the treated plants corresponds to the untreated control.
# Myzus persicae [1] = test: Myzus persicae - oral test; type: in vivo; conditions: 20 ppm, after 5 days
# Procedure: Solvent: 100 parts by weight of acetone
# Subsequently, the plates are sealed with parafilm, which a mixed population of green peach aphids (Myzus persicae) within a second microtitre plate is able to puncture and imbibe the solution through it.
# After 5 days, the efficacy in % is determined. 100% means that all the aphids have been killed; 0% means that no aphids have been killed.
# Myzus persicae [2] = test: Myzus persicae - spray test (Chinese cabbage leaf discs); type: in vivo; conditions: 500 g/ha, after 6 days
# Summary of the method: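 Leaf discs of Chinese cabbage carrying all aphid stages sprayed with compound formulated in acetone/DMF and water with 1000 ppm alkylaryl polyglycol ether emulsifier. Kill rate scored after 6 days as % efficacy (100% all aphids dead, 0% none).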
# [3] = log P determination by HPLC on reversed-phase (C18) columns, OECD Guideline 117; type: physicochemical; conditions: HPLC
# Summary of the method: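 Reversed-phase C18 HPLC per OECD 117, LC-MS with a linear 10% to 95% acetonitrile gradient. Acidic method at pH 2.7 with 0.1% formic acid; neutral method at pH 7.8 with 0.001 M ammonium hydrogencarbonate.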
smiles,measurement,setting,value
CN(C(=O)c1cnc(-c2cccc3c2OCO3)n1C)c1cccnc1 [Example 83],nematicidal efficacy in % (formation of galls),Meloidogyne incognita,100%
same,efficacy in % (aphids killed),Myzus persicae [1],100%
same,efficacy in % (aphids killed),Myzus persicae [2],90%
same,logp-acidic,"[3]; acidic range pH 2.7, 0.1% aqueous formic acid/acetonitrile",0.9
same,logp-neutral,"[3]; neutral range pH 7.8, 0.001 molar aqueous ammonium hydrogencarbonate/acetonitrile",1.44
